Experimental data reported in ChEMBL document CHEMBL2169853, “Discovery and in vivo evaluation of dual PI3Kβ/δ inhibitors” (J Med Chem, 2012).
Converted amounts (≈) assume the structure as drawn.

Key:
[1] = target: T1, PXR (nuclear receptor subfamily 1 group I member 2) (Homo sapiens, UniProt O75469); assay: in vitro
T1 sequence (O75469 whole entry): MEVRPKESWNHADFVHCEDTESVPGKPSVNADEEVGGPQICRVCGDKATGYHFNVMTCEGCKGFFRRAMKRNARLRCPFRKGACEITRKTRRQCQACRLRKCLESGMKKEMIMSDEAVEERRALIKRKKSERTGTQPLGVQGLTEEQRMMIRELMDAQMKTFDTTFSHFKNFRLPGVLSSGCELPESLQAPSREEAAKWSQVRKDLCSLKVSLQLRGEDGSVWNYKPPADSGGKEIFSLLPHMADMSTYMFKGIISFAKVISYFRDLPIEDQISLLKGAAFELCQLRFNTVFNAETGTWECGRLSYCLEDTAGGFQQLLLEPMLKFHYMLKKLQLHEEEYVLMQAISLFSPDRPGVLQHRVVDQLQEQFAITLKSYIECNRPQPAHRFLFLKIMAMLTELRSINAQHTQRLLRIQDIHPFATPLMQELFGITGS
Description: Inhibition of human PXR assessed as activity remaining at 2 uM relative to rifampicin

in vitro [2] = details: human, liver microsomes
Description: Drug metabolism in human liver microsomes at 1 uM after 30 mins

[3] = target: Phosphatidylinositol 4,5-bisphosphate 3-kinase catalytic subunit gamma isoform (Homo sapiens, UniProt P48736)
Chain of Phosphatidylinositol 4,5-bisphosphate 3-kinase catalytic subunit gamma isoform (P48736 whole entry, canonical isoform): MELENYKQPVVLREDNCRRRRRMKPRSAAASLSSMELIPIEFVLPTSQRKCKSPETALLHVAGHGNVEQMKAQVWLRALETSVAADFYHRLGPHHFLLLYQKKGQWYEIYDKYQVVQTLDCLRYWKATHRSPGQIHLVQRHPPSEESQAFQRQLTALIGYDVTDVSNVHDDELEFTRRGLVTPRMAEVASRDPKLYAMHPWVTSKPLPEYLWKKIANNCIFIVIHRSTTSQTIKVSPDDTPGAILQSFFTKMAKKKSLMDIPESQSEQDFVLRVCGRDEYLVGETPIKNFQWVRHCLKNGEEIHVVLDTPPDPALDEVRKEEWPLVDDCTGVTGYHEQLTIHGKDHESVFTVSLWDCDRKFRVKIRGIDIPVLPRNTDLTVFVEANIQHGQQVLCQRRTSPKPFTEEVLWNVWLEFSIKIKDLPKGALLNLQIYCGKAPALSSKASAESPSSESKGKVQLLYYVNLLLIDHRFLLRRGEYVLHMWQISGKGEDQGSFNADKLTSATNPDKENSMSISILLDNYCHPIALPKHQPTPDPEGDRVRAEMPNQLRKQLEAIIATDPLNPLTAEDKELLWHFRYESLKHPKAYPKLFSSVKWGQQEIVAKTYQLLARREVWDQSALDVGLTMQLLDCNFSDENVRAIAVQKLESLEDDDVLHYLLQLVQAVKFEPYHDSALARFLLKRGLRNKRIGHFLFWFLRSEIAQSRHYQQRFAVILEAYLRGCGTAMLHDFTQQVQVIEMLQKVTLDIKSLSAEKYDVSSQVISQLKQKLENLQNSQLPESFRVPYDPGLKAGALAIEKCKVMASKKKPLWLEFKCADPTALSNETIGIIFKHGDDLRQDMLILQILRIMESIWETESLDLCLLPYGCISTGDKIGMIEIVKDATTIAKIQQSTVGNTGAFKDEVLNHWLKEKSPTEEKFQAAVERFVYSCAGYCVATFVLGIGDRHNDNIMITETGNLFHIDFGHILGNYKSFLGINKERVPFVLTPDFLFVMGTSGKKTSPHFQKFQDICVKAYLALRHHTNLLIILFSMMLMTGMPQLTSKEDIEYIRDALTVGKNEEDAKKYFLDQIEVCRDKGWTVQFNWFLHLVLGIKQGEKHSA
Description: Inhibition of PI3Kgamma by ATP bioluminescence assay

[4] = target: T2, Phosphatidylinositol 4,5-bisphosphate 3-kinase catalytic subunit beta isoform (Homo sapiens, UniProt P42338)
T2 sequence (P42338 whole entry, canonical isoform): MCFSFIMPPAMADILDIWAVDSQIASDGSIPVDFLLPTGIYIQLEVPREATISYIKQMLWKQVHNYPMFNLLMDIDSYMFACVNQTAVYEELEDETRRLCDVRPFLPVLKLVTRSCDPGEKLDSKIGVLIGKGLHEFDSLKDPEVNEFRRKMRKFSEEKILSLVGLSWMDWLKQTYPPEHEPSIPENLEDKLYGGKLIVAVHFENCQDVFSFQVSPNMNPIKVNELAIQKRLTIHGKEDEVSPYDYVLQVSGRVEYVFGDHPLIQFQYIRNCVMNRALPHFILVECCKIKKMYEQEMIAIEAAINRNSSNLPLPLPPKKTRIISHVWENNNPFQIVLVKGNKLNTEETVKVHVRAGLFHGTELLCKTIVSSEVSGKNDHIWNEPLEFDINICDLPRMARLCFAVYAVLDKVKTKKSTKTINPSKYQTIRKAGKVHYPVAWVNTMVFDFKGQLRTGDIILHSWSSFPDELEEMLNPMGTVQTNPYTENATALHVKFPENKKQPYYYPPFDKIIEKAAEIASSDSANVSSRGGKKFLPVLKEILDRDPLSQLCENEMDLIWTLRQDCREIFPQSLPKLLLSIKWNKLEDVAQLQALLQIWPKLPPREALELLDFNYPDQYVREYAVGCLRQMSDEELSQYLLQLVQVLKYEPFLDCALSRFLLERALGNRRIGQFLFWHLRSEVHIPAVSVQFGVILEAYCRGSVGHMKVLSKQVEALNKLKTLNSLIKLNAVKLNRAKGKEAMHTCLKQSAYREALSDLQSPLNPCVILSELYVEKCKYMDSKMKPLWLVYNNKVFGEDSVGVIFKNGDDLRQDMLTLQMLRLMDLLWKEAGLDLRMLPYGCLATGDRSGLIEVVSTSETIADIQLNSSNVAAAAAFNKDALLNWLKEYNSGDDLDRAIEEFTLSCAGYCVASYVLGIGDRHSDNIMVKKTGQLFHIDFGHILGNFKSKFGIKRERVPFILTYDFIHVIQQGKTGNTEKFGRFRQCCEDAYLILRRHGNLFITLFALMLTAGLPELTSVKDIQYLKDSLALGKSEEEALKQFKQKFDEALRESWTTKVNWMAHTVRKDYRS
Description: Inhibition of PI3Kbeta-mediated AKT Ser473 phosphorylation in human MDA-MB-468 cells after 120 mins by meso scale discover assay

physchem [5] = details: phosphate buffered saline, pH 7.4
Description: Solubility of the compound in phosphate buffered saline at pH 7.4

[6] = target: T2, Phosphatidylinositol 4,5-bisphosphate 3-kinase catalytic subunit beta isoform; remark: listed apart in the source
Description: Inhibition of PI3Kbeta using phosphatidylinositol-4,5-bisphosphate by ATP bioluminescence assay

physchem [7] = details: buffer, pH 7.4
Description: Lipophilicity, log D of the compound at pH 7.4

in vitro [8] = details: rat, liver microsomes
Description: Drug metabolism in rat liver microsomes at 1 uM after 30 mins

[9] = target: T3, Phosphatidylinositol 4,5-bisphosphate 3-kinase catalytic subunit delta isoform (Homo sapiens, UniProt O00329)
T3 sequence (O00329 whole entry): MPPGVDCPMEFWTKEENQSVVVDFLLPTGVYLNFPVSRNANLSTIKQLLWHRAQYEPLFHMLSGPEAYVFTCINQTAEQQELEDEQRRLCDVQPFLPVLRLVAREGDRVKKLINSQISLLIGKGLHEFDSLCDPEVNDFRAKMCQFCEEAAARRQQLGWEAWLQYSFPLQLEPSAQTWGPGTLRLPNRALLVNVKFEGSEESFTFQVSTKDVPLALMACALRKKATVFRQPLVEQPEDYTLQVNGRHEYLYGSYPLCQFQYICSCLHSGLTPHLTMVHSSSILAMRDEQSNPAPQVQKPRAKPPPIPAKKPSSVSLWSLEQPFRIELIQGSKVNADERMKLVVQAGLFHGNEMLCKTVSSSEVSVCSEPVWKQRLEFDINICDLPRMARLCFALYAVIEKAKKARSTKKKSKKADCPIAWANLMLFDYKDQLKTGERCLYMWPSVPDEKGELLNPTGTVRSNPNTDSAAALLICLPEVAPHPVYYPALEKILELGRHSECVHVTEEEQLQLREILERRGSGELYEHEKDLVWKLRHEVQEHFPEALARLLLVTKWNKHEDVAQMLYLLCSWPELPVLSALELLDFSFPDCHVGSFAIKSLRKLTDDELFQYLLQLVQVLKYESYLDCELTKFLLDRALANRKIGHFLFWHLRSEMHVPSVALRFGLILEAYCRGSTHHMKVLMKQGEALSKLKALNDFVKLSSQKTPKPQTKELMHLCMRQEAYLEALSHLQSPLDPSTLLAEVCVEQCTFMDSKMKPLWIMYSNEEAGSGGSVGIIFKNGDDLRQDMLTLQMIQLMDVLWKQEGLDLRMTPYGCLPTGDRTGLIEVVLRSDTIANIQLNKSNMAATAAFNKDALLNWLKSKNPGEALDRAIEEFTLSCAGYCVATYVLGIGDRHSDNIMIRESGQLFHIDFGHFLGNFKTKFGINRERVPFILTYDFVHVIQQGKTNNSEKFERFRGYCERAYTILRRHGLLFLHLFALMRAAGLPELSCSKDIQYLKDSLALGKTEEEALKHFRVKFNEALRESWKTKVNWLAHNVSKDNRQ
Description: Inhibition of PI3Kdelta using phosphatidylinositol-4,5-bisphosphate by ATP bioluminescence assay

[10] = target: Phosphatidylinositol 4,5-bisphosphate 3-kinase catalytic subunit alpha isoform (Homo sapiens, UniProt P42336)
Chain of Phosphatidylinositol 4,5-bisphosphate 3-kinase catalytic subunit alpha isoform (P42336 whole entry, canonical isoform): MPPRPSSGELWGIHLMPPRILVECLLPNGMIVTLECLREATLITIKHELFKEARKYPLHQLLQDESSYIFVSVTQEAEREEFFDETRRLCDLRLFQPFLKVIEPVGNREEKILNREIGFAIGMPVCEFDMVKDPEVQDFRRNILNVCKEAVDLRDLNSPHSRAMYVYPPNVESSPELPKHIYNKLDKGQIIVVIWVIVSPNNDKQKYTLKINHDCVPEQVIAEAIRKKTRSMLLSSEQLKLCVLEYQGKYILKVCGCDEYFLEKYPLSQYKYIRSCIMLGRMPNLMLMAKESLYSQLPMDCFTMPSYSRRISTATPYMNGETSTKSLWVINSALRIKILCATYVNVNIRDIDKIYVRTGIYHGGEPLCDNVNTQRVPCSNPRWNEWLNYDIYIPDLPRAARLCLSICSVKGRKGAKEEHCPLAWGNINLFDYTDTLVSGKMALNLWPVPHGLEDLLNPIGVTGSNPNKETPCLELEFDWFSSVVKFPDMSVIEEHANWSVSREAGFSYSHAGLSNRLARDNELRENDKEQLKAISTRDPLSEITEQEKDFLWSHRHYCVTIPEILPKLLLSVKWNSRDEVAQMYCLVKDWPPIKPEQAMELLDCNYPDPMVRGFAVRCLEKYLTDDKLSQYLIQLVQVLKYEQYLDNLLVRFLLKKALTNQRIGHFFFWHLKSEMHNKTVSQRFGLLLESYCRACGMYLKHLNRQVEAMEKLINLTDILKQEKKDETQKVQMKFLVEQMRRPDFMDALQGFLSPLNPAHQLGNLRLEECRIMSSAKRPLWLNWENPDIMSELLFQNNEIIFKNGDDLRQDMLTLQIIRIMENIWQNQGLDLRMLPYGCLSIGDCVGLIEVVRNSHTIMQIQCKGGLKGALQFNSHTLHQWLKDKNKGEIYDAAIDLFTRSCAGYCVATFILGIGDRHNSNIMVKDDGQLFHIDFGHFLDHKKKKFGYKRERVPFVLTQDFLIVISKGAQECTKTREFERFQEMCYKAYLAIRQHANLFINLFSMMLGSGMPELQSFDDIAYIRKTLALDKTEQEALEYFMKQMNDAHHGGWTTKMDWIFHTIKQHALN
Description: Inhibition of PI3Kalpha by ATP bioluminescence assay

in vivo [11] = details: Sprague-Dawley, rat, iv, 0.5 mg/kg
Description: Volume of distribution at steady state in Sprague-Dawley rat at 0.5 mg/kg, iv

in vivo [12] = details: Sprague-Dawley, rat, iv, 0.5 mg/kg; remark: listed apart in the source
Description: Clearance in Sprague-Dawley rat at 0.5 mg/kg, iv

in vivo [13] = details: Sprague-Dawley, rat, iv, 0.5 mg/kg; remark: listed apart in the source
Description: Half life in Sprague-Dawley rat at 0.5 mg/kg, iv

in vivo [14] = details: Sprague-Dawley, rat, plasma, po, 2 mg/kg
in vivo [15] = details: Sprague-Dawley, rat, po, 2 mg/kg

Compound | activity at 2 µM [1] | metabolised at 0.5 h, 1 µM (in vitro [2]) | solubility (physchem [5]) | IC50 [6] | metabolised at 0.5 h, 1 µM (in vitro [8]) | IC50 [9] | Ki [3] | Ki [6] | further results
Cc1c(-c2ccccn2)nc2cc(F)ccc2c1N1CC2(CS(=O)(=O)C2)c2ccc(N3CCOCC3)cc21 | – | – | – | – | – | – | 7.34 µM | 0.395 µM | Ki [10]: > 12.5 µM
Cc1c(-c2ccccn2)nc2cc(F)ccc2c1N1CC(C)(C)c2ccc(-c3ccncc3)cc21 | – | – | – | 0.081 µM | – | – | – | – | IC50 [3]: 1.4 µM
Cc1c(-c2ccccn2)nc2cc(F)ccc2c1N1CC(C)(C)c2ccc(-c3ccnc(N)n3)cc21 | – | – | – | – | – | – | 0.09 µM | 0.054 µM | Vd (in vivo [11]): 7.5 L/kg; clearance (in vivo [12]): 26.8 mL/min/kg; half-life (in vivo [13]): 6.1 h
Cc1c(-c2ccccn2)nc2cc(F)ccc2c1N1CC(C)(C)c2ncc(N3CCOCC3)cc21 | 22% | 47% | 11 µg/mL (≈ 23.4 µM) | – | 28% | – | 0.092 µM | 0.03 µM | Vd (in vivo [11]): 5 L/kg; AUC (in vivo [14]): 2 µM·h; Ki [10]: 1.72 µM; IC50 [4]: 0.051 µM; clearance (in vivo [12]): 16.2 mL/min/kg; Ki [9]: 0.007 µM; bioavailability (in vivo [15]): 47%; half-life (in vivo [13]): 6.2 h
Cc1nc2ccccc2c(N2CC(C)(C)c3ccc(N4CCOCC4)cc32)c1C | 14% | 65% | 1 µg/mL (≈ 2.58 µM) | 0.06 µM | 94% | 0.362 µM | – | – | IC50 [10]: 41 µM; IC50 [3]: 18 µM
Cc1nc2ccc(Cl)cc2c(N2CC(C)(C)c3ccc(N4CCOCC4)cc32)c1C | 17% | 54% | 1 µg/mL (≈ 2.37 µM) | 0.06 µM | 84% | – | – | – | –
Cc1c(-c2ccccc2)nc2ccccc2c1N1CC(C)(C)c2ccc(N3CCOCC3)cc21 | 197% | 42% | 2.4 µg/mL (≈ 5.34 µM) | 0.059 µM | 57% | 0.085 µM | – | – | –

More lines, main results first:

activity at 2 µM [1] | metabolised at 0.5 h, 1 µM (in vitro [2]) | solubility (physchem [5]) | IC50 [6] | metabolised at 0.5 h, 1 µM (in vitro [8]) | IC50 [9] | Ki [3] | Ki [6] | Compound | further results
106% | 40% | 7.4 µg/mL (≈ 15.8 µM) | 0.058 µM | 34% | – | – | – | Cc1c(-c2ccccn2)nc2cc(F)ccc2c1N1CC(C)(C)c2ccc(N3CCOCC3)cc21 | IC50 [3]: 2.01 µM; IC50 [4]: 0.053 µM; logD (physchem [7]): 4.5
104% | 52% | 5.2 µg/mL (≈ 11.1 µM) | 0.72 µM | 49% | 0.072 µM | – | – | Cc1c(-c2ccccn2)nc2cccc(F)c2c1N1CC(C)(C)c2ccc(N3CCOCC3)cc21 | –
1% | 70% | – | 0.054 µM | 71% | 0.45 µM | – | – | Cc1nc2ccccc2c(N2CC3(CCOCC3)c3ccc(N4CCOCC4)cc32)c1C | –
103% | 62% | 3.2 µg/mL (≈ 6.51 µM) | 0.105 µM | 46% | 0.091 µM | – | – | Cc1c(-c2ccccc2)nc2ccccc2c1N1CC2(CCOCC2)c2ccc(N3CCOCC3)cc21 | –
22% | 64% | – | 0.143 µM | 13% | 0.064 µM | – | – | Cc1c(-c2ccccn2)nc2cc(F)ccc2c1N1CC2(CCOCC2)c2ccc(N3CCOCC3)cc21 | –
– | – | – | – | – | – | 16 µM | 0.269 µM | Cc1c(-c2ccccn2)nc2cc(F)ccc2c1N1CC(CO)(CO)c2ccc(N3CCOCC3)cc21 | Ki [10]: > 125 µM
– | – | – | – | – | – | 0.364 µM | > 125 µM | Cc1cc(-c2ccc3c(c2)N(c2c(C)c(-c4ccccn4)nc4cc(F)ccc24)CC3(C)C)nc(N)n1 | Ki [10]: > 125 µM
65% | 12% | 17 µg/mL (≈ 35.6 µM) | – | 34% | – | 0.028 µM | 0.018 µM | Cc1c(-c2ccccn2)nc2cc(F)ccc2c1N1CC(C)(C)c2ncc(-c3ccnc(N)n3)cc21 | IC50 [4]: 0.01 µM
162% | 47% | 1 µg/mL (≈ 2.14 µM) | 0.035 µM | 52% | 0.047 µM | – | – | Cc1c(-c2ccccc2F)nc2ccccc2c1N1CC(C)(C)c2ccc(N3CCOCC3)cc21 | –
